Assay results reported in US20250353891A1 (MEDIMMUNE LIMITED, priority 2022, published 2025).
Starred links: 1 amine or outer side, 2 acyl side, 3 side chain; linkers in the order of their positions; H or OH if unused. Non-standard residues stand in square brackets, D forms with d. Residues, ends and D or L forms follow the SMILES beside them. Groups on a side chain read outwards from the residue. *: point of attachment. C18 diacid = O=C(O)CCCCCCCCCCCCCCCCC(=O)*; γGlu = O=C(O)[C@H](CCC(=O)[*:2])N[*:1]; αMeF = C[C@](N)(Cc1ccccc1)C(=O)O; PEG4 = NCCOCCOCCOCCOCCC(=O)O; AEEA = NCCOCCOCC(=O)O; Aib = CC(C)(N)C(=O)O

Columns and labels:
[1] = biological target: human GLP-1 receptor (hGLP-1R) (Homo sapiens, UniProt P43220); assay: cAMP production (HTRF) in CHO cells expressing hGLP-1R; format: cell-based; design: expressed in transfected cells; details: for EC50: Table 7, peptides modified at position 20, cAMP in CHO hGLP-1R cells, geometric mean, read-out: hGLP-1R EC50; for % Relative Potency Ratio: Table 7, % GLP-1R activity relative to GLP-1 / % GlucR activity relative to glucagon
human GLP-1 receptor (hGLP-1R), sequence (P43220 24-463): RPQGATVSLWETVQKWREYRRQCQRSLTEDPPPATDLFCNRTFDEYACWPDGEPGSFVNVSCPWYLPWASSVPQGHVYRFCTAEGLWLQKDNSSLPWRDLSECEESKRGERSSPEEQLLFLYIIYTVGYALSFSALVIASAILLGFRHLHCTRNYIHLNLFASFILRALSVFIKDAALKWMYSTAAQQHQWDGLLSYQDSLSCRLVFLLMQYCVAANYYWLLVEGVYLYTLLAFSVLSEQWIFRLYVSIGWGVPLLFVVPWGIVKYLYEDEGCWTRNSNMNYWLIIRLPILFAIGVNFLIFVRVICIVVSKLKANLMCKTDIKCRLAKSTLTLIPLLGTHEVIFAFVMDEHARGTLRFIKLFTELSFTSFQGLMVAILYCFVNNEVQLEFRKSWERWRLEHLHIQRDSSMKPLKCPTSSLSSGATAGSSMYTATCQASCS
Summary of the method: (§1)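 Cells were resuspended in assay buffer at batch-optimized density, typically 1×10^5 cells/mL for hGLP-1R and 2×10^5 cells/mL for hGCGR. After 30 min incubation at room temperature with compound, cAMP was measured by two-step HTRF. EC50 values came from 4-parameter logistic fits of % Delta F.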

[2] = biological target: human glucagon receptor (hGCGR) (Homo sapiens, UniProt P47871); assay: cAMP production (HTRF) in CHO cells expressing hGCGR; format: cell-based; design: expressed in transfected cells; details: Table 7, peptides modified at position 20; cAMP in CHO hGCGR cells; geometric mean; read-out: hGluc-R EC50
human glucagon receptor (hGCGR), sequence (P47871 26-477): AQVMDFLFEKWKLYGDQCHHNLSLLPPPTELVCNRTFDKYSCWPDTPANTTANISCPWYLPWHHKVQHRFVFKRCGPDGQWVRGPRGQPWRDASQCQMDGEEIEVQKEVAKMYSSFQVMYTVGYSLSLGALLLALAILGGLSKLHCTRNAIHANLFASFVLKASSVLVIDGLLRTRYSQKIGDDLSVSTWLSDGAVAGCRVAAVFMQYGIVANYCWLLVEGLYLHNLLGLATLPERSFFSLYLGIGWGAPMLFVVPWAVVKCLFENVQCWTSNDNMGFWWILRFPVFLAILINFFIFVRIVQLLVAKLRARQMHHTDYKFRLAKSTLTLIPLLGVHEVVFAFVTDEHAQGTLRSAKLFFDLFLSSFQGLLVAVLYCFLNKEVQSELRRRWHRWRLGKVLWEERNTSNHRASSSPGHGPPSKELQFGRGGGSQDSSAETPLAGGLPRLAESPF
Summary of the method: as §1

## CC[C@H](C)[C@H](NC(=O)[C@H](Cc1c[nH]c2ccccc12)NC(=O)[C@H](CCC(N)=O)NC(=O)[C@@H](NC(=O)[C@H](Cc1ccccc1)NC(=O)[C@H](CC(=O)O)NC(=O)[C@H](CCCCNC(=O)COCCOCCNC(=O)COCCOCCNC(=O)CC[C@H](NC(=O)CCCCCCCCCCCCCCCCC(=O)O)C(=O)O)NC(=O)[C@H](C)NC(=O)[C@H](C)NC(=O)[C@H](CCCNC(=N)N)NC(=O)[C@@H](NC(=O)[C@H](CC(=O)O)NC(=O)[C@H](CC(C)C)NC(=O)[C@](C)(Cc1ccccc1)NC(=O)[C@H](CCCCN)NC(=O)[C@H](CO)NC(=O)[C@@H](NC(=O)[C@H](CC(=O)O)NC(=O)[C@H](CO)NC(=O)[C@@H](NC(=O)[C@H](Cc1ccccc1)NC(=O)[C@@H](NC(=O)CNC(=O)[C@H](CCC(N)=O)NC(=O)C(C)(C)NC(=O)[C@@H](N)Cc1c[nH]cn1)[C@@H](C)O)[C@@H](C)O)C(C)C)[C@@H](C)O)C(C)C)C(=O)N[C@@H](C)C(=O)N[C@@H](CC(N)=O)C(=O)N[C@H](C(N)=O)[C@@H](C)O [Peptide 308] (H-H[Aib]QGTFTSDVSK[αMeF]LDTRAAK([AEEA-AEEA-γGlu-C18 diacid])DFVQWIANT-NH2; N-terminus assumed)
[1]
  EC50: 0.0275 nM
  % Relative Potency Ratio: 123.4
[2]
  EC50: 1.72 nM

## CC[C@H](C)[C@H](NC(=O)[C@H](Cc1c[nH]c2ccccc12)NC(=O)[C@H](CCC(N)=O)NC(=O)[C@@H](NC(=O)[C@H](Cc1ccccc1)NC(=O)[C@H](CC(=O)O)NC(=O)[C@H](CCCCNC(=O)COCCOCCNC(=O)COCCOCCNC(=O)CC[C@H](NC(=O)CCCCCCCCCCCCCCCCC(=O)O)C(=O)O)NC(=O)[C@H](C)NC(=O)[C@H](C)NC(=O)[C@H](CCCNC(=N)N)NC(=O)[C@H](CCC(=O)O)NC(=O)[C@H](CC(=O)O)NC(=O)[C@H](CC(C)C)NC(=O)[C@](C)(Cc1ccccc1)NC(=O)[C@H](CCCCN)NC(=O)[C@H](CO)NC(=O)[C@@H](NC(=O)[C@H](CC(=O)O)NC(=O)[C@H](CO)NC(=O)[C@@H](NC(=O)[C@H](Cc1ccccc1)NC(=O)[C@@H](NC(=O)CNC(=O)[C@H](CCC(N)=O)NC(=O)C(C)(C)NC(=O)[C@@H](N)Cc1c[nH]cn1)[C@@H](C)O)[C@@H](C)O)C(C)C)C(C)C)C(=O)N[C@@H](C)C(=O)N[C@@H](CC(N)=O)C(=O)N[C@H](C(N)=O)[C@@H](C)O [Peptide 309]
[1]
  EC50: 0.0706 nM
  % Relative Potency Ratio: 486.8
[2]
  EC50: 17.4 nM

## CC(C)C[C@H](NC(=O)[C@H](Cc1c[nH]c2ccccc12)NC(=O)[C@H](CCC(N)=O)NC(=O)[C@@H](NC(=O)[C@H](Cc1ccccc1)NC(=O)[C@H](CC(=O)O)NC(=O)[C@H](CCCCNC(=O)COCCOCCNC(=O)COCCOCCNC(=O)CC[C@H](NC(=O)CCCCCCCCCCCCCCCCC(=O)O)C(=O)O)NC(=O)[C@H](C)NC(=O)[C@H](C)NC(=O)[C@H](CCCNC(=N)N)NC(=O)[C@H](CO)NC(=O)[C@H](CC(=O)O)NC(=O)[C@H](CC(C)C)NC(=O)[C@](C)(Cc1ccccc1)NC(=O)[C@H](CCCCN)NC(=O)[C@H](CO)NC(=O)[C@@H](NC(=O)[C@H](CC(=O)O)NC(=O)[C@H](CO)NC(=O)[C@@H](NC(=O)[C@H](Cc1ccccc1)NC(=O)[C@@H](NC(=O)CNC(=O)[C@H](CCC(N)=O)NC(=O)C(C)(C)NC(=O)[C@@H](N)Cc1c[nH]cn1)[C@@H](C)O)[C@@H](C)O)C(C)C)C(C)C)C(=O)N[C@@H](CCC(=O)O)C(=O)N[C@@H](C)C(=O)NCC(=O)NCC(N)=O [Peptide 310]
[1]
  EC50: 0.0564 nM
  % Relative Potency Ratio: 64.4
[2]
  EC50: 1.84 nM

## CC(C)C[C@H](NC(=O)[C@H](Cc1c[nH]c2ccccc12)NC(=O)[C@H](CCC(N)=O)NC(=O)[C@@H](NC(=O)[C@H](Cc1ccccc1)NC(=O)[C@H](CC(=O)O)NC(=O)[C@H](CCCCNC(=O)COCCOCCNC(=O)COCCOCCNC(=O)CC[C@H](NC(=O)CCCCCCCCCCCCCCCCC(=O)O)C(=O)O)NC(=O)[C@H](C)NC(=O)[C@H](C)NC(=O)[C@H](CCCNC(=N)N)NC(=O)[C@H](CO)NC(=O)[C@H](CC(=O)O)NC(=O)[C@H](CC(C)C)NC(=O)[C@](C)(Cc1ccccc1)NC(=O)[C@H](CCCCN)NC(=O)[C@H](CO)NC(=O)[C@@H](NC(=O)[C@H](CC(=O)O)NC(=O)[C@H](CO)NC(=O)[C@@H](NC(=O)[C@H](Cc1ccccc1)NC(=O)[C@@H](NC(=O)CNC(=O)[C@H](CCC(N)=O)NC(=O)C(C)(C)NC(=O)[C@@H](N)Cc1c[nH]cn1)[C@@H](C)O)[C@@H](C)O)C(C)C)C(C)C)C(=O)N[C@H](C(=O)N[C@@H](CCC(=O)O)C(=O)N[C@H](C(N)=O)[C@@H](C)O)C(C)C [Peptide 311]
[1]
  EC50: 0.0351 nM
  % Relative Potency Ratio: 26.4
[2]
  EC50: 0.469 nM

## CC(C)C[C@H](NC(=O)[C@H](Cc1c[nH]c2ccccc12)NC(=O)[C@H](CCC(N)=O)NC(=O)[C@@H](NC(=O)[C@H](Cc1ccccc1)NC(=O)[C@H](CC(=O)O)NC(=O)[C@H](CCCCNC(=O)COCCOCCNC(=O)COCCOCCNC(=O)CC[C@H](NC(=O)CCCCCCCCCCCCCCCCC(=O)O)C(=O)O)NC(=O)[C@H](C)NC(=O)[C@H](CCCNC(=N)N)NC(=O)[C@H](CCCNC(=N)N)NC(=O)[C@H](CO)NC(=O)[C@H](CC(=O)O)NC(=O)[C@H](CC(C)C)NC(=O)[C@](C)(Cc1ccccc1)NC(=O)[C@H](CCCCN)NC(=O)[C@H](CO)NC(=O)[C@H](Cc1ccc(O)cc1)NC(=O)[C@H](CC(=O)O)NC(=O)[C@H](CO)NC(=O)[C@@H](NC(=O)[C@H](Cc1ccccc1)NC(=O)[C@@H](NC(=O)CNC(=O)[C@H](CCC(N)=O)NC(=O)C(C)(C)NC(=O)[C@@H](N)Cc1c[nH]cn1)[C@@H](C)O)[C@@H](C)O)C(C)C)C(=O)N[C@H](C(=O)NCCOCCOCCOCCOCCC(N)=O)C(C)C [Peptide 312] (H-H[Aib]QGTFTSDYSK[αMeF]LDSRRAK([AEEA-AEEA-γGlu-C18 diacid])DFVQWLV[PEG4]-NH2; N-terminus assumed)
[1]
  EC50: 0.152 nM
  % Relative Potency Ratio: 36.1
[2]
  EC50: 2.78 nM

## CC(C)C[C@H](NC(=O)[C@H](Cc1c[nH]c2ccccc12)NC(=O)[C@H](CCC(N)=O)NC(=O)[C@@H](NC(=O)[C@H](Cc1ccccc1)NC(=O)[C@H](CC(=O)O)NC(=O)[C@H](CCCCNC(=O)COCCOCCNC(=O)COCCOCCNC(=O)CC[C@H](NC(=O)CCCCCCCCCCCCCCCCC(=O)O)C(=O)O)NC(=O)[C@H](C)NC(=O)C(C)(C)NC(=O)[C@H](CCCNC(=N)N)NC(=O)[C@H](CO)NC(=O)[C@H](CC(=O)O)NC(=O)[C@H](CC(C)C)NC(=O)[C@](C)(Cc1ccccc1)NC(=O)[C@H](CCCCN)NC(=O)[C@H](CO)NC(=O)[C@@H](NC(=O)[C@H](CC(=O)O)NC(=O)[C@H](CO)NC(=O)[C@@H](NC(=O)[C@H](Cc1ccccc1)NC(=O)[C@@H](NC(=O)CNC(=O)[C@H](CCC(N)=O)NC(=O)C(C)(C)NC(=O)[C@@H](N)Cc1c[nH]cn1)[C@@H](C)O)[C@@H](C)O)C(C)C)C(C)C)C(=O)N[C@@H](CC(C)C)C(=O)N[C@@H](CC(N)=O)C(=O)N[C@H](C(=O)O)[C@@H](C)O [Peptide 313]
[1]
  EC50: 0.138 nM
  % Relative Potency Ratio: 17.6
[2]
  EC50: 1.23 nM

## CC(C)C[C@H](NC(=O)C(C)(C)NC(=O)[C@H](CCC(N)=O)NC(=O)[C@@H](NC(=O)[C@H](Cc1ccccc1)NC(=O)[C@H](CC(=O)O)NC(=O)[C@H](CCCCNC(=O)COCCOCCNC(=O)COCCOCCNC(=O)CC[C@H](NC(=O)CCCCCCCCCCCCCCCCC(=O)O)C(=O)O)NC(=O)[C@H](C)NC(=O)C(C)(C)NC(=O)[C@H](CCCNC(=N)N)NC(=O)[C@H](CO)NC(=O)[C@H](CC(=O)O)NC(=O)[C@H](CC(C)C)NC(=O)[C@](C)(Cc1ccccc1)NC(=O)[C@H](CCCCN)NC(=O)[C@H](CO)NC(=O)[C@@H](NC(=O)[C@H](CC(=O)O)NC(=O)[C@H](CO)NC(=O)[C@@H](NC(=O)[C@H](Cc1ccccc1)NC(=O)[C@@H](NC(=O)CNC(=O)[C@H](CCC(N)=O)NC(=O)C(C)(C)NC(=O)[C@@H](N)Cc1c[nH]cn1)[C@@H](C)O)[C@@H](C)O)C(C)C)C(C)C)C(=O)N[C@H](C(=O)N[C@@H](C)C(=O)N[C@H](C(N)=O)[C@@H](C)O)C(C)C [Peptide 314] (H-H[Aib]QGTFTSDVSK[αMeF]LDSR[Aib]AK([AEEA-AEEA-γGlu-C18 diacid])DFVQ[Aib]LVAT-NH2; N-terminus assumed)
[1]
  EC50: 0.0308 nM
  % Relative Potency Ratio: 439.3
[2]
  EC50: 6.83 nM

## CC(C)C[C@H](NC(=O)C(C)(C)NC(=O)[C@H](CCC(N)=O)NC(=O)[C@@H](NC(=O)[C@H](Cc1ccccc1)NC(=O)[C@H](CC(=O)O)NC(=O)[C@H](CCCCNC(=O)COCCOCCNC(=O)COCCOCCNC(=O)CC[C@H](NC(=O)CCCCCCCCCCCCCCCCC(=O)O)C(=O)O)NC(=O)[C@H](C)NC(=O)[C@H](C)NC(=O)[C@H](CCCNC(=N)N)NC(=O)[C@H](CO)NC(=O)[C@H](CC(=O)O)NC(=O)[C@H](CC(C)C)NC(=O)[C@](C)(Cc1ccccc1)NC(=O)[C@H](CCCCN)NC(=O)[C@H](CO)NC(=O)[C@@H](NC(=O)[C@H](CC(=O)O)NC(=O)[C@H](CO)NC(=O)[C@@H](NC(=O)[C@H](Cc1ccccc1)NC(=O)[C@@H](NC(=O)CNC(=O)[C@H](CCC(N)=O)NC(=O)C(C)(C)NC(=O)[C@@H](N)Cc1c[nH]cn1)[C@@H](C)O)[C@@H](C)O)C(C)C)C(C)C)C(=O)N[C@H](C(=O)N[C@@H](C)C(=O)N[C@H](C(N)=O)[C@@H](C)O)C(C)C [Peptide 315]
[1]
  EC50: 0.0181 nM
  % Relative Potency Ratio: 639.1
[2]
  EC50: 5.85 nM
